From US20080233102A1, “Drug Therapy for Celiac Sprue” (priority 2002, published 2008)
Read-outs that look alike come from different tables or passages of the source.

Tests used:
[1] = target: T1, Tissue transglutaminase (tTG) (Homo sapiens, UniProt P21980); assay: Inhibition of tTG (residual activity, glutamate dehydrogenase coupled assay); format: biochemical
T1 sequence (P21980 1-687): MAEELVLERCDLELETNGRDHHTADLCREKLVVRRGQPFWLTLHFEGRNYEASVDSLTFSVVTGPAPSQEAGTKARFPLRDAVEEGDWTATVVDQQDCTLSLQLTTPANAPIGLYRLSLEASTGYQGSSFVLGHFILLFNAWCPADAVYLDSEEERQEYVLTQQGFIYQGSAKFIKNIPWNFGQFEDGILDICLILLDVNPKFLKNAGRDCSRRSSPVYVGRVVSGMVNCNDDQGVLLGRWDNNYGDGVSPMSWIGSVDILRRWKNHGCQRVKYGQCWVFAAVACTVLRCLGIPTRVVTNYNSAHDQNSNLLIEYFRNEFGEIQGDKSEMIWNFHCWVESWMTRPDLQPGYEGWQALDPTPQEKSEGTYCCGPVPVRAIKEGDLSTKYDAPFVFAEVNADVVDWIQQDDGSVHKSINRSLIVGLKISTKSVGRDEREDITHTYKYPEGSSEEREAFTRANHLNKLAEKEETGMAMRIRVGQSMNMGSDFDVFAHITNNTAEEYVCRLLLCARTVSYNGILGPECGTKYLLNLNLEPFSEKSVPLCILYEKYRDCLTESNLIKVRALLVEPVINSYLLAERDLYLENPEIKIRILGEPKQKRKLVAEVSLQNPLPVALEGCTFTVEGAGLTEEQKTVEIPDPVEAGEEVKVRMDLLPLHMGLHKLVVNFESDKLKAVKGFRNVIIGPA
Description: Inhibition of tTG. tTG (9 μM) was inactivated in 200 mM MOPS, pH=7.1, 5 mM CaCl2, 1 mM ETDA at 30° C. containing 0-600 μM Pro-Gln-Pro-Aci-Leu-Pro-Tyr. Every 20 minutes a 40 μl aliquot was removed and residual tTG activity was assayed in 0.5 ml reaction containing 200 mM MOPS, pH=7.1, 5 mM CaCl2, 1 mM ETDA, 10 mM α-ketoglutarate, 180 U/ml glutamate dehydrogenase (Biozyme laboratories) at 30° C. for 20 minutes by measuring the decrease of absorption at 340 nm. Residual activity was corrected by the corresponding uninhibited tTG reaction (0 μM inhibitor) and fitted to an exponential decay. Kinetic parameters were obtained by double-reciprocal plotting of the apparent second-order inactivation constant or, for isatin analogs, by fitting the data for reversible inhibitors to a standard Michaelis Menten equation with a competitive inhibition constant.

[2] = tested on: bovine epidermal transglutaminase; conditions: Castelhano et al., Bioorg. Chem. (1988) 16, 335-340; cited from earlier work
[3] = target: T2, recombinant human tissue transglutaminase (Homo sapiens, UniProt P21980); assay: tTGase assay with recombinant human tissue transglutaminase; format: biochemical; conditions: dihydroisoxazole inhibitors of human tTGase; for Inhibition Rate Constants (kinh): irreversible inactivation; for Ki: competitive with Cbz-Gln-Gly substrate, read-out: Dissociation Constants (Kl)
T2 construct: made in house
T2 sequence (P21980 1-687): T1 sequence (P21980 1-687)

[4] = dihydroisoxazoles, 200 mM MOPS, pH=7.1, 30° C., read-out: KI
[5] = isatin derivatives, reversible, competitive inhibition constant, read-out: Kl

Row | Structure (SMILES) | Inhibition Rate Constants (kinh) [3] [min⁻¹] | kinh/Kl [3] [min^−1M^−1] | Ki [3] [µM] | also measured
1 | Cc1ccc(C)c(NC(=O)NCC2CC(Br)=NO2)c1 (stereo not drawn) [1-(3-Bromo-4,5-dihydro-isoxazol-5-ylmethyl)-3-(2,5-dimethyl-phenyl)-urea] | – | – | – | Ki [1, 4]: 960 µM
2 | O=C(NCC1CC(Br)=NO1)Nc1cc(C(F)(F)F)ccc1Cl (stereo not drawn) [1-(3-Bromo-4,5-dihydro-isoxazol-5-ylmethyl)-3-(2-chloro-5-trifluoromethyl-phenyl)-urea] | – | – | – | Ki [1, 4]: 910 µM
3 | O=C(NCC1CC(Br)=NO1)Nc1ccc(Cl)cc1C(F)(F)F (stereo not drawn) [1-(3-Bromo-4,5-dihydro-isoxazol-5-ylmethyl)-3-(4-chloro-2-trifluoromethyl-phenyl)-urea] | – | – | – | Ki [1, 4]: 1300 µM
4 | O=C(NCC1CC(Br)=NO1)Nc1ccc(F)cc1 (stereo not drawn) [1-(3-Bromo-4,5-dihydro-isoxazol-5-ylmethyl)-3-(4-fluoro-phenyl)-urea] | – | – | – | Ki [1, 4]: 1300 µM
5 | O=C(NCC1CC(Br)=NO1)Nc1ccccc1 (stereo not drawn) [1-(3-Bromo-4,5-dihydro-isoxazol-5-ylmethyl)-3-phenyl-urea] | – | – | – | Ki [1, 4]: 1100 µM
6 | O=C(N[C@@H](Cc1ccccc1)C(=O)NCC1CC(Br)=NO1)OCc1ccccc1 (stereo partly drawn) [1a, {(S)-1-[(3-Bromo-4,5-dihydro-isoxazol-5-ylmethyl)-carbamoyl]-2-phenyl-ethyl}-carbamic acid benzyl ester] | 1.3 | – | – | Inhibition of bovine epidermal transglutaminase [2]: inhibitor
7 | O=C(N[C@@H](Cc1ccc(O)cc1)C(=O)NCC1CC(Br)=NO1)OCc1ccccc1 (stereo partly drawn) [1b] | 0.86 | 2000 | 420 | –
8 | O=C(N[C@@H](Cc1ccc(F)cc1)C(=O)NCC1CC(Br)=NO1)OCc1ccccc1 (stereo partly drawn) [1c, {(S)-1-[(3-Bromo-4,5-dihydro-isoxazol-5-ylmethyl)-carbamoyl]-2-(4-fluoro-phenyl)-ethyl}-carbamic acid benzyl ester] | 0.42 | 980 | 430 | –
9 | O=C(N[C@@H](Cc1cccc(F)c1)C(=O)NCC1CC(Br)=NO1)OCc1ccccc1 (stereo partly drawn) [1d, {(S)-1-[(3-Bromo-4,5-dihydro-isoxazol-5-ylmethyl)-carbamoyl]-2-(3-fluoro-phenyl)-ethyl}-carbamic acid benzyl ester] | 0.84 | 2200 | 390 | –
10 | O=C(N[C@@H](Cc1c[nH]c2ccccc12)C(=O)NCC1CC(Br)=NO1)OCc1ccccc1 (stereo partly drawn) [1e, {(S)-1-[(3-Bromo-4,5-dihydro-isoxazol-5-ylmethyl)-carbamoyl]-2-(1H-indol-3-yl)-ethyl}carbamic acid benzyl ester] | 0.78 | 2500 | 310 | –
11 | O=C1Nc2c(cccc2-c2ccccc2)C1=O [R1 = R2 = H; R3 = Ph] | – | – | – | Ki [1, 5]: 400 µM
12 | O=C1Nc2ccccc2C1=O [R1 = R2 = R3 = H] | – | – | – | Ki [1, 5]: 860 µM
13 | O=C1Nc2cc(-c3ccccc3)ccc2C1=O [R1 = R3 = H; R2 = Ph] | – | – | – | Ki [1, 5]: 350 µM
14 | O=C1Nc2ccc([N+](=O)[O-])cc2C1=O [R2 = R3 = H, R1 = NO2] | – | – | – | Ki [1, 5]: 48 µM
15 | O=C1Nc2ccc(F)cc2C1=O [R2 = R3 = H; R1 = F] | – | – | – | Ki [1, 5]: 18 µM
16 | O=C1Nc2ccc(I)cc2C1=O [R2 = R3 = H; R1 = I] | – | – | – | Ki [1, 5]: 22 µM

Second part, led by results:

Row | Inhibition Rate Constants (kinh) [3] [min⁻¹] | kinh/Kl [3] [min^−1M^−1] | Ki [3] [µM] | Structure (SMILES) | also measured
17 | 0.31 | 2800 | 110 | O=C(N[C@@H](Cc1c[nH]c2ccc(O)cc12)C(=O)NCC1CC(Br)=NO1)OCc1ccccc1 (stereo partly drawn) [1f, {(S)-1-[(3-Bromo-4,5-dihydro-isoxazol-5-ylmethyl)-carbamoyl]-2-(5-hydroxy-1H-indol-3-yl)-ethyl}-carbamic acid benzyl ester] | –
18 | 0.54 | 2300 | – | O=C(C[C@H](NC(=O)OCc1ccccc1)C(=O)NCC1CC(Br)=NO1)NCc1ccccc1 (stereo partly drawn) [1g, {(S)-2-Benzylcarbamoyl-1-[(3-bromo-4,5-dihydro-isoxazol-5-ylmethyl)-carbamoyl]-ethyl}-carbamic acid benzyl ester] | –
19 | 0.29 | – | – | O=C(N[C@H](Cc1ccccc1)C(=O)NCC1CC(Br)=NO1)OCc1ccccc1 (stereo partly drawn) [1h, {(R)-1-[(3-Bromo-4,5-dihydro-isoxazol-5-ylmethyl)-carbamoyl]-2-phenyl-ethyl}-carbamic acid benzyl ester] | –
20 | 0.41 | 450 | – | C[C@H](NC(=O)OCc1ccccc1)C(=O)NCC1CC(Br)=NO1 (stereo partly drawn) [1i, {(S)-1-[(3-Bromo-4,5-dihydro-isoxazol-5-ylmethyl)-carbamoyl]-ethyl}-carbamic acid benzyl ester] | –
21 | 0.32 | 230 | – | O=C(N[C@@H](Cc1ccccc1)C(=O)OCC1CC(Br)=NO1)OCc1ccccc1 (stereo partly drawn) [2a, (S)-2-Benzyloxycarbonylamino-3-phenyl-propionic acid 3-bromo-4,5-dihydro-isoxazol-5-ylmethyl ester] | –
22 | 0.19 | 730 | – | CN(CC1CC(Br)=NO1)C(=O)[C@H](Cc1ccccc1)NC(=O)OCc1ccccc1 (stereo partly drawn) [2b, {(S)-1-[(3-Bromo-4,5-dihydro-isoxazol-5-ylmethyl)-methyl-carbamoyl]-2-phenyl-ethyl}-carbamic acid benzyl ester] | –
23 | 0.60 | 220 | – | CC(=O)N[C@@H](Cc1ccccc1)C(=O)NCC1CC(Br)=NO1 (stereo partly drawn) [3a, (S)-2-Acetylamino-N-(3-bromo-4,5-dihydro-isoxazol-5-ylmethyl)-3-phenyl-propionamide] | –
24 | 0.12 | 1500 | 81 | O=C(N[C@@H](Cc1ccc(O)cc1)C(=O)NCC1CC(Br)=NO1)OCc1ccncc1 (stereo partly drawn) [3b, {(S)-1-[(3-Bromo-4,5-dihydro-isoxazol-5-ylmethyl)-carbamoyl]-2-(4-hydroxy-phenyl)-ethyl}-carbamic acid pyridin-4-ylmethyl ester] | –
25 | 0.21 | 2700 | 78 | O=C(N[C@@H](Cc1ccc(O)cc1)C(=O)NCC1CC(Br)=NO1)OCc1cccnc1 (stereo partly drawn) [3c, {(S)-1-[(3-Bromo-4,5-dihydro-isoxazol-5-ylmethyl)-carbamoyl]-2-(4-hydroxy-phenyl)-ethyl}-carbamic acid pyridin-3-ylmethyl ester] | –
26 | 0.093 | 1500 | 61 | O=C(N[C@@H](Cc1ccc(O)cc1)C(=O)NCC1CC(Br)=NO1)OCCc1ccccc1 (stereo partly drawn) [3d, {(S)-1-[(3-Bromo-4,5-dihydro-isoxazol-5-ylmethyl)-carbamoyl]-2-(4-hydroxy-phenyl)-ethyl}-carbamic acid phenethyl ester] | –
27 | 0.070 | 1600 | 43 | O=C(N[C@@H](Cc1ccc(O)cc1)C(=O)NCC1CC(Br)=NO1)OCc1ccc2ccccc2c1 (stereo partly drawn) [3e, {(S)-1-[(3-Bromo-4,5-dihydro-isoxazol-5-ylmethyl)-carbamoyl]-2-(4-hydroxy-phenyl)-ethyl}-carbamic acid naphthalen-2-ylmethyl ester] | –
28 | 0.38 | 4400 | 87 | O=C(N[C@@H](Cc1ccc(O)cc1)C(=O)NCC1CC(Br)=NO1)OCC1=Cc2ccccc2S1(=O)=O (stereo partly drawn) [3f, {(S)-1-[(3-Bromo-4,5-dihydro-isoxazol-5-ylmethyl)-carbamoyl]-2-(4-hydroxy-phenyl)-ethyl}-carbamic acid 1,1-dioxo-1H-1λ6-benzo[b]thiophen-2-ylmethyl ester] | –
29 | 0.54 | 6800 | 79 | O=C(N[C@@H](Cc1c[nH]c2ccc(O)cc12)C(=O)NCC1CC(Br)=NO1)OCC1=Cc2ccccc2S1(=O)=O (stereo partly drawn) [compound 4, {(S)-1-[(3-Bromo-4,5-dihydro-isoxazol-5-ylmethyl)-carbamoyl]-2-(5-hydroxy-1H-indol-3-yl)-ethyl}-carbamic acid 1,1-dioxo-1H-1λ6-benzo[b]thiophen-2-ylmethyl ester] | –
